Assay results reported in patent publication US11826351B2, “Compounds useful as kinase inhibitors” (Loxo Oncology, Inc., priority 2015, dated 2023).
Where two headings read alike, the source gives them in different places.

Experiments:
[1] = molecular target: T1, Recombinant EGFR (Homo sapiens, UniProt P00533); test: EGFR binding affinity (LanthaScreen TR-FRET); details: Kinase Tracer 199, 5 h incubation
T1 construct: purchased Invitrogen
Summary of the method: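 Compounds were titrated against recombinant EGFR and binding was followed by LanthaScreen time-resolved FRET.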

[2] = test system: OCI-Ly10 human DLBCL cells; test: OCI-Ly10 anti-proliferative activity (Resazurin); assay type: cell-based; details: OCI-Ly10 cells, 72 h compound treatment, Resazurin, read-out: Proliferation Assay OCI-Ly10-20% FBS
Summary of the method: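 A separate untreated plate gave the Day 0 reading, measured by Resazurin fluorescence at 590 nm after 5 h. The average Day 0 value was subtracted from each treated well, and results were expressed as percent of DMSO control. IC50 values came from a log[Inhibitor] vs response Variable Slope fit in Graphpad prism.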

[3] = molecular target: T2, Recombinant BTK^C481S kinase (Homo sapiens, UniProt Q06187, C481S); test: BTK C481S binding affinity (LanthaScreen TR-FRET); details: Kinase Tracer 236, 5 h incubation
T2 construct: purchased SignalChem
T2 sequence (Q06187 whole entry C481S): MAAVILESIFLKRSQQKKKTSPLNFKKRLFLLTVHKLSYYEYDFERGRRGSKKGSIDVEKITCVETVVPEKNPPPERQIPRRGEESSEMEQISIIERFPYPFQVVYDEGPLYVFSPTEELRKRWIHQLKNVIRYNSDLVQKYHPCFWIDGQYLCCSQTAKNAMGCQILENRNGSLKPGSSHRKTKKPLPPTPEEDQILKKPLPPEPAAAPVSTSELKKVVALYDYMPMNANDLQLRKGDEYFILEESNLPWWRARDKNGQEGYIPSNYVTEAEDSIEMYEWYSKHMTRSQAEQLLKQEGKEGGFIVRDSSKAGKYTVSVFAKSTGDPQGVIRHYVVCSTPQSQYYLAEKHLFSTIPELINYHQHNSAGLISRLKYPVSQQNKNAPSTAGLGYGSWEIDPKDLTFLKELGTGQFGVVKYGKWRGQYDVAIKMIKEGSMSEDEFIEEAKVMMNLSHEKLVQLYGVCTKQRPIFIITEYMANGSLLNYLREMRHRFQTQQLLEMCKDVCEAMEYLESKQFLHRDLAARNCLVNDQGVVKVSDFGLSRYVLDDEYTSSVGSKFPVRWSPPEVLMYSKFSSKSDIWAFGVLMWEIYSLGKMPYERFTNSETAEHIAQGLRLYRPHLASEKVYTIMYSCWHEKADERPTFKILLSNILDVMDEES
Summary of the method: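 BTK C481S tracer-displacement TR-FRET: 5 nM His-tagged kinase, 2 nM Eu anti-His antibody and 30 nM Kinase Tracer 236 incubated with titrated inhibitor for 5 h in Kinase Buffer A. Read at 340 nm excitation, 615/665 nm emission; IC50 from variable-slope log[inhibitor]–response fit.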

[4] = molecular target: T3, Recombinant BTK^WT kinase (Homo sapiens, UniProt Q06187); test: BTK WT binding affinity (LanthaScreen TR-FRET); details: Kinase Tracer 236, 5 h incubation
T3 construct: purchased Invitrogen
T3 sequence (Q06187 whole entry): as the sequence (Q06187 whole entry C481S) above, with S481C counted along it
Summary of the method: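 IC50 obtained by variable-slope fit of TR-FRET signal (ex 340 nm; em 615 and 665 nm) versus inhibitor concentration. Reaction held for 5 h in LanthaScreen Kinase Buffer A with 2.5 nM His-tagged BTK^WT, 15 nM Kinase Tracer 236 and 2 nM Eu anti-His antibody.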

T1 sequence (P00533 25-1210): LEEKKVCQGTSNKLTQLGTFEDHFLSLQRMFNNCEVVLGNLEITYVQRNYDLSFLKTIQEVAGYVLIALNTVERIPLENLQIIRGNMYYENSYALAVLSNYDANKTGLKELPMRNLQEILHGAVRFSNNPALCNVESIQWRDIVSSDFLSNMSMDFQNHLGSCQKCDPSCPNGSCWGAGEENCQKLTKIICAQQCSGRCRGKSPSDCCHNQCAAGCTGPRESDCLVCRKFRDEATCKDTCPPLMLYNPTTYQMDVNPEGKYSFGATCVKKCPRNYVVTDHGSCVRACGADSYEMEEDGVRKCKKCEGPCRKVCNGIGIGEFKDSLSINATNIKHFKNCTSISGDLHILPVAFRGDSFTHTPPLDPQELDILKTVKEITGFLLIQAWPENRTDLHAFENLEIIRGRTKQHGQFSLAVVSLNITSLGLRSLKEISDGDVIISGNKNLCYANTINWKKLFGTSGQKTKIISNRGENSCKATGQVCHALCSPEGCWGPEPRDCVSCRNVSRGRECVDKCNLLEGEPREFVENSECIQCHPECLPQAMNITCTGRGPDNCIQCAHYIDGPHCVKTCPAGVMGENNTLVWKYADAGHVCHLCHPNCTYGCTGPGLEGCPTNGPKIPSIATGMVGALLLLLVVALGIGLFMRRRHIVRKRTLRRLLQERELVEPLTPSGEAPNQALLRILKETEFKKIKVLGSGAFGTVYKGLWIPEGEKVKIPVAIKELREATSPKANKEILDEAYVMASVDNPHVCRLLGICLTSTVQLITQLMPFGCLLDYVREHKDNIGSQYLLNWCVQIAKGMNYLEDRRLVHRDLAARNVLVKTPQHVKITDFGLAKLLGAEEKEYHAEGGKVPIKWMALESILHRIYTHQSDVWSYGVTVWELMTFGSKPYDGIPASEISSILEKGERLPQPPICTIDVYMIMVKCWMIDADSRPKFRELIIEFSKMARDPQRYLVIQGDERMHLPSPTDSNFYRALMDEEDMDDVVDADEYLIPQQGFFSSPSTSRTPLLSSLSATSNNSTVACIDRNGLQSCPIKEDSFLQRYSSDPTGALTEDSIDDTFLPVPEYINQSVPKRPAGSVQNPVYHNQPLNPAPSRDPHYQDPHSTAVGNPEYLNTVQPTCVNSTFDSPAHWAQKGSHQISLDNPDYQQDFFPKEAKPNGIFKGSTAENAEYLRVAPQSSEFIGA

SMILES | IC50 [1] [nM] | IC50 ([2]; Homo sapiens, OCI-Ly10, 72 h) [nM] | IC50 [3] [nM] | IC50 [4] [nM] | IC50 [2] [nM]
COc1ccccc1C(=O)NCc1ccc(-c2nn(C(C)C(F)(F)F)c(N)c2C(N)=O)cc1 (stereo not drawn) [Example 121, 5-amino-3-[4-[[(2-methoxybenzoyl)amino]methyl]phenyl]-1-(2,2,2-trifluoro-1-methyl-ethyl)pyrazole-4-carboxamide] | 100 to 1000 | 10 to 100 | < 10 | < 10 | –
COc1ccccc1C(=O)NCc1ccc(-c2nn(C)c(N)c2C(N)=O)cc1 [Example 30, 5-Amino-3-[4-[[(2-methoxybenzoyl)amino]methyl]phenyl]-1-methyl-pyrazole-4-carboxamide] | > 10000 | 100 to 1000 | 10 to 100 | 10 to 100 | –
COc1ccccc1C(=O)NCc1ccc(-c2nn(-c3ccccc3C)c(N)c2C(N)=O)cc1 [Example 47, 5-amino-3-[4-[[(2-methoxybenzoyl)amino]methyl]phenyl]-1-(o-tolyl)pyrazole-4-carboxamide] | 1000 to 10000 | 100 to 1000 | < 10 | 10 to 100 | –
COc1ccccc1C(=O)NCc1ccc(-c2nn(-c3ccccc3)c(N)c2C(N)=O)cc1 [Example 22, 5-Amino-3-[4-[[(2-methoxybenzoyl)amino]methyl]phenyl]-1-phenyl-pyrazole-4-carboxamide] | 1000 to 10000 | 10 to 100 | < 10 | < 10 | –
COc1ccccc1C(=O)NCc1ccc(-c2nn(CCc3nnn[nH]3)c(N)c2C(N)=O)cc1 [Example 25, 5-Amino-3-[4-[[(2-methoxybenzoyl)amino]methyl]phenyl]-1-[2-(1H-tetrazol-5-yl)ethyl]pyrazole-4-carboxamide] | 1000 to 10000 | > 10000 | < 10 | 10 to 100 | –
COc1ccccc1C(=O)NCc1cc(-c2nn(C3CCCC3)c(N)c2C(N)=O)ccc1F [Example 118, 5-amino-1-cyclopentyl-3-[4-fluoro-3-[[(2-methoxybenzoyl)amino]methyl]phenyl]pyrazole-4-carboxamide] | 1000 to 10000 | 1000 to 10000 | 10 to 100 | 100 to 1000 | –
COc1ccccc1C(=O)NCc1ccc(-c2nn(-c3cc(F)ccc3F)c(N)c2C(N)=O)cc1 [Example 61, 5-amino-1-(2,5-difluorophenyl)-3-[4-[[(2-methoxybenzoyl)amino]methyl]phenyl]pyrazole-4-carboxamide] | 100 to 1000 | 10 to 100 | < 10 | < 10 | –
COc1ccccc1C(=O)NCc1ccc(-c2nn([C@@H]3CCOC3)c(N)c2C(N)=O)cc1 [Example 83b, 5-amino-3-[4-[[(2-methoxybenzoyl)amino]methyl]phenyl]-1-[(3R)-tetrahydrofuran-3-yl]pyrazole-4-carboxamide] | 1000 to 10000 | 10 to 100 | < 10 | < 10 | –
COc1ccc(F)cc1C(=O)NCc1ccc(-c2nn([C@@H]3CCCOC3)c(N)c2C(N)=O)cc1 [Example 183, 5-amino-3-[4-[[(5-fluoro-2-methoxy-benzoyl)amino]methyl]phenyl]-1-[(3R)-tetrahydropyran-3-yl]pyrazole-4-carboxamide] | 1000 to 10000 | 100 to 1000 | < 10 | < 10 | –
COc1ccccc1C(=O)NCc1ccc(-c2nn(C3CCC(O)CC3)c(N)c2C(N)=O)cc1 (single isomer, unassigned) [Example 34a, 5-Amino-1-(4-hydroxycyclohexyl)-3-[4-[[(2-methoxybenzoyl)amino]methyl]phenyl]pyrazole-4-carboxamide] | 100 to 1000 | – | < 10 | < 10 | 10 to 100
COc1ccccc1C(=O)NCc1ccc(-c2nn(C3CCCC3)c(N)c2C(N)=O)c(F)c1F [Example 155, 5-amino-1-cyclopentyl-3-[2,3-difluoro-4-[[(2-methoxybenzoyl)amino]methyl]phenyl]pyrazole-4-carboxamide] | 1000 to 10000 | 10 to 100 | < 10 | < 10 | –
COc1ccccc1C(=O)NCc1ccc(-c2nn([C@H]3CC[C@H](O)C3)c(N)c2C(N)=O)cc1 (relative stereo) [Example 46, 5-Amino-1-[(1S*,3S*)-3-hydroxycyclopentyl]-3-[4-[[(2-methoxybenzoyl)amino]methyl]phenyl]pyrazole-4-carboxamide] | 100 to 1000 | 10 to 100 | < 10 | < 10 | –
COc1ccc(F)cc1C(=O)NCc1ccc(-c2nn(C3CCOC3)c(N)c2C(N)=O)c(F)c1 (stereo not drawn) [Example 105, 5-amino-3-[2-fluoro-4-[[(5-fluoro-2-methoxy-benzoyl)amino]methyl]phenyl]-1-tetrahydrofuran-3-yl-pyrazole-4-carboxamide] | 1000 to 10000 | 100 to 1000 | < 10 | 10 to 100 | –
COc1ccc(F)cc1C(=O)NCc1ccc(-c2nn(C3CCCC3)c(N)c2C(N)=O)cc1F [Example 76, 5-amino-1-cyclopentyl-3-[3-fluoro-4-[[(5-fluoro-2-methoxy-benzoyl)amino]methyl]phenyl]pyrazole-4-carboxamide] | 100 to 1000 | 10 to 100 | < 10 | < 10 | –
COc1ccccc1C(=O)NCc1ccc(-c2nn(C3CCCC(O)C3)c(N)c2C(N)=O)cc1 (stereo not drawn) [Example 48, 5-amino-1-(3-hydroxycyclohexyl)-3-[4-[[(2-methoxybenzoyl)amino]methyl]phenyl]pyrazole-4-carboxamide] | 100 to 1000 | 100 to 1000 | < 10 | < 10 | –
COc1ccccc1C(=O)NCc1ccc(-c2nn(C3CCOCC3)c(N)c2C(N)=O)c(F)c1F [Example 141, 5-amino-3-[2,3-difluoro-4-[[(2-methoxybenzoyl)amino]methyl]phenyl]-1-tetrahydropyran-4-yl-pyrazole-4-carboxamide] | > 10000 | 100 to 1000 | < 10 | 10 to 100 | –
COc1ccc(F)cc1C(=O)NCc1ccc(-c2nn(CCC(F)(F)F)c(N)c2C(N)=O)cc1 [Example 174, 5-amino-3-[4-[[(5-fluoro-2-methoxy-benzoyl)amino]methyl]phenyl]-1-(3,3,3-trifluoropropyl)pyrazole-4-carboxamide] | 1000 to 10000 | 10 to 100 | < 10 | < 10 | –
COc1ccc(F)cc1C(=O)NCc1ccc(-c2nn([C@H]3CCOC3)c(N)c2C(N)=O)cc1 [Example 162, 5-amino-3-[4-[[(5-fluoro-2-methoxy-benzoyl)amino]methyl]phenyl]-1-[(3S)-tetrahydrofuran-3-yl]pyrazole-4-carboxamide] | 1000 to 10000 | 10 to 100 | < 10 | < 10 | –
CCC(C)n1nc(-c2ccc(CNC(=O)c3ccccc3OC)cc2)c(C(N)=O)c1N (stereo not drawn) [Example 150, 5-amino-3-[4-[[(2-methoxybenzoyl)amino]methyl]phenyl]-1-sec-butyl-pyrazole-4-carboxamide] | 1000 to 10000 | 10 to 100 | < 10 | < 10 | –
COc1ccccc1C(=O)NCc1ccc(-c2nn(C3CCC(F)(F)CC3)c(N)c2C(N)=O)cc1 [Example 68, 5-amino-1-(4,4-difluorocyclohexyl)-3-[4-[[(2-methoxybenzoyl)amino]methyl]phenyl]pyrazole-4-carboxamide] | 100 to 1000 | 10 to 100 | < 10 | < 10 | –
COc1ccccc1C(=O)NCc1ccc(-c2nn(-c3ccc(C(F)(F)F)cn3)c(N)c2C(N)=O)cc1 [Example 6, 5-Amino-3-[4-[[(2-methoxybenzoyl)amino]methyl]phenyl]-1-[5-(trifluoromethyl)-2-pyridyl]pyrazole-4-carboxamide] | > 10000 | 100 to 1000 | < 10 | 10 to 100 | –
COc1ccccc1C(=O)NCc1ccc(-c2nn(C3CCOCC3)c(C(F)F)c2C(N)=O)cc1 [Example 108, 5-(difluoromethyl)-3-[4-[[(2-methoxybenzoyl)amino]methyl]phenyl]-1-tetrahydropyran-4-yl-pyrazole-4-carboxamide] | > 10000 | 1000 to 10000 | 10 to 100 | 10 to 100 | –
COc1ccc(F)cc1C(=O)NCc1ccc(-c2nn(C3CNCC3(F)F)c(N)c2C(N)=O)cc1 (stereo not drawn) [Example 169, 5-amino-1-(4,4-difluoropyrrolidin-3-yl)-3-[4-[[(5-fluoro-2-methoxy-benzoyl)amino]methyl]phenyl]pyrazole-4-carboxamide] | 1000 to 10000 | 10 to 100 | < 10 | < 10 | –
CCC(n1nc(-c2ccc(CNC(=O)c3cc(F)ccc3OC)cc2)c(C(N)=O)c1N)C(F)(F)F (stereo not drawn) [Example 181, 5-amino-3-[4-[[(5-fluoro-2-methoxy-benzoyl)amino]methyl]phenyl]-1-[1-(trifluoromethyl)propyl]pyrazole-4-carboxamide] | 1000 to 10000 | 10 to 100 | < 10 | < 10 | –
